molecular target: T1, peroxidase PEO-301 (Toyobo Co., Ltd.) (Armoracia rusticana, UniProt P00433); assay: Acceleration of hydrogen peroxide detection reaction mediated by peroxidase, using a small amount of peroxidase (Example 2); type: biochemical; conditions: as shown in Table 2; 0.013 U/ml peroxidase; compared with not added
T1 construct: purchased Toyobo Co., Ltd. PEO-301
T1 sequence (P00433 31-338): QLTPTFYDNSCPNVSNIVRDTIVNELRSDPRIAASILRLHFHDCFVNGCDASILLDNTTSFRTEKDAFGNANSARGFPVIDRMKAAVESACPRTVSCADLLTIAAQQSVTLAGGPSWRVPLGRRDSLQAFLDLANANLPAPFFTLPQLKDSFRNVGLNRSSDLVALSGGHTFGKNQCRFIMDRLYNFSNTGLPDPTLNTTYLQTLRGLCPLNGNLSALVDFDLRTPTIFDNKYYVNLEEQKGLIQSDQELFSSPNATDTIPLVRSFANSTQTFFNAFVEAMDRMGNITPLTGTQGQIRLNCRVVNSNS
Procedure: Next, in this Example, the degree of acceleration of hydrogen peroxide detection reaction by the compound of the present invention was determined using a small amount of peroxidase.
A reagent for Hydrogen peroxide measurement having the following composition was prepared, and the measurement of hydrogen peroxide was carried out using Bio Majesty JCA-BM1650 (manufactured by JEOL Ltd.).
(§1) 100 mM MOPS-NaOH buffer solution, pH 6.5
(§2) 0.00012% (w/v) hydrogen peroxide
(§3) 30 mM MOPS-NaOH buffer solution, pH 6.5
(§4) 0.2% (w/v) n-dodecyl-β-D-maltoside (manufactured by Dojindo Laboratories)
0.013 U/ml peroxidase PEO-301 (Toyobo Co., Ltd.)
(§5) 0.023 mM 10-(carboxymethylaminocarbonyl)-3,7-bis(dimethylamino)phenothiazine sodium (DA-67, manufactured by Wako Pure Chemical Industries, Ltd.)
0.48% (w/v) of the compound of Comparative Example 2, any one compound of the present invention, or compound-free (Comparative Example 1) ion-exchange water as shown in Table 2
(§6) 8 μl of the second reagent was added to 96 μl of the first reagent-B, and the mixture was incubated at 37° C. for 5 minutes. Then, 24 μl of the sample was added thereto, and the quantitative reaction of hydrogen peroxide was allowed to progress at 37° C. for 5 minutes. The absorbance (A694 and A751) of the reaction solution for light at wavelengths of 694 nm and 751 nm was measured over time for 10 minutes after the mixing of the second reagent with the first reagent-B to determine the value of subtraction of A751 from A694, i.e., the value of A694/751. Subsequently, ΔA was calculated by subtracting, from A694/751, the value of (104/128) times A694/751 4.8 minutes after the mixing of the second reagent with the first reagent-B. Incidentally, 4.8 minutes after the mixing of the second reagent with the first reagent-B represents the time immediately before the addition of the sample.
Next, ΔA calculated in this Example was divided by ΔA100% defined in Example 1 to calculate the degree of progression of hydrogen peroxide detection reaction. The degree of progression of hydrogen peroxide detection reaction 7.5 and 10 minutes after the mixing of the second reagent with the first reagent-B (in other words, 2.5 and 5 minutes, respectively, after the addition of the sample) is shown in Table 2.

Row | Compound | acceleration of hydrogen peroxide detection reaction using peroxidase
1 | Chrome Yellow | accelerated
2 | O=C([O-])c1cc(N=Nc2cccc([N+](=O)[O-])c2)ccc1O.[Na+] [Alizarin Yellow GG] | accelerated
3 | Oc1ccc(N=Nc2ccccc2)cc1 [4-(Phenylazo)phenol, 4-(phenylazo)phenol] | accelerated
4 | COc1cc(N=Nc2cccc(S(=O)(=O)[O-])c2)ccc1NC(=O)Nc1ccc(N=Nc2ccc(O)c(C(=O)[O-])c2)cc1.[Na+].[Na+] [Direct Yellow 44] | accelerated
5 | O=C([O-])C1=NN(c2ccc(S(=O)(=O)[O-])cc2)C(=O)C1N=Nc1ccc(S(=O)(=O)[O-])cc1.[Na+].[Na+].[Na+] (stereo not drawn) [Tartrazine, reference compound] | accelerated
6 | O=C(O)c1cc2ccccc2c(N=Nc2c(O)cc(S(=O)(=O)O)c3ccccc23)c1O [2-hydroxy-1-(2-hydroxy-4-sulfo-1-naphthylazo)-3-naphthoic acid] | accelerated

same assay, conditions: ΔA divided by ΔA100%; 7.5 minutes after mixing second reagent with first reagent-B (2.5 minutes after addition of sample); 0.013 U/ml peroxidase; 0.48% (w/v) compound in second reagent; 37° C.

Row | Compound | Degree of progression of reaction (%) after 7.5 minutes [%]
7 | Chrome Yellow | 66
8 | O=C([O-])c1cc(N=Nc2cccc([N+](=O)[O-])c2)ccc1O.[Na+] [Alizarin Yellow GG] | 64
9 | Oc1ccc(N=Nc2ccccc2)cc1 [4-(Phenylazo)phenol, 4-(phenylazo)phenol] | 69
10 | COc1cc(N=Nc2cccc(S(=O)(=O)[O-])c2)ccc1NC(=O)Nc1ccc(N=Nc2ccc(O)c(C(=O)[O-])c2)cc1.[Na+].[Na+] [Direct Yellow 44] | 64
11 | O=C([O-])C1=NN(c2ccc(S(=O)(=O)[O-])cc2)C(=O)C1N=Nc1ccc(S(=O)(=O)[O-])cc1.[Na+].[Na+].[Na+] (stereo not drawn) [Tartrazine, reference compound] | 57
12 | O=C(O)c1cc2ccccc2c(N=Nc2c(O)cc(S(=O)(=O)O)c3ccccc23)c1O [2-hydroxy-1-(2-hydroxy-4-sulfo-1-naphthylazo)-3-naphthoic acid] | 61

same assay, conditions: ΔA divided by ΔA100%; 10 minutes after mixing second reagent with first reagent-B (5 minutes after addition of sample); 0.013 U/ml peroxidase; 0.48% (w/v) compound in second reagent; 37° C.

Row | Compound | Degree of progression of reaction (%) after 10 minutes [%]
13 | Chrome Yellow | 92
14 | O=C([O-])c1cc(N=Nc2cccc([N+](=O)[O-])c2)ccc1O.[Na+] [Alizarin Yellow GG] | 89
15 | Oc1ccc(N=Nc2ccccc2)cc1 [4-(Phenylazo)phenol, 4-(phenylazo)phenol] | 90
16 | COc1cc(N=Nc2cccc(S(=O)(=O)[O-])c2)ccc1NC(=O)Nc1ccc(N=Nc2ccc(O)c(C(=O)[O-])c2)cc1.[Na+].[Na+] [Direct Yellow 44] | 89
17 | O=C([O-])C1=NN(c2ccc(S(=O)(=O)[O-])cc2)C(=O)C1N=Nc1ccc(S(=O)(=O)[O-])cc1.[Na+].[Na+].[Na+] (stereo not drawn) [Tartrazine, reference compound] | 85
18 | O=C(O)c1cc2ccccc2c(N=Nc2c(O)cc(S(=O)(=O)O)c3ccccc23)c1O [2-hydroxy-1-(2-hydroxy-4-sulfo-1-naphthylazo)-3-naphthoic acid] | 90

molecular target: T1, peroxidase PEO-301 (Toyobo Co., Ltd.); assay: Hydrogen peroxide detection reaction mediated by peroxidase, completed using an excess of peroxidase (Example 1); type: biochemical; conditions: ΔA of A694/751, 9 minutes after mixing second reagent with first reagent-A; 0.067 U/ml peroxidase; 0.48% (w/v) compound in second reagent; 0.00012% (w/v) hydrogen peroxide; DA-67; pH 6.5; 37° C.
Procedure: In this Example the amount of change in absorbance was determined when hydrogen peroxide detection reaction was completed using an excess of peroxidase.
A reagent for hydrogen peroxide measurement having the following composition (formulation) was prepared, and the measurement of hydrogen peroxide was carried out using Bio Majesty JCA-BM1650 (manufactured by JEOL Ltd.).
as §1, §2, §3, §4
0.067 U/ml peroxidase PEO-301 (Toyobo Co., Ltd.)
as §5
0.48% (w/v) of the compound of Comparative Example 2 (Wako Pure Chemical Industries, Ltd.), any one compound of the present invention (all from Tokyo Chemical Industry Co., Ltd.), or compound-free (Comparative Example 1) ion-exchange water as shown in Table 1
as §6, with “reagent-A,” for “reagent-B,”, “reagent-A” for “reagent-B”, “reagent-A.” for “reagent-B.”, “sample. ΔA 9 minutes and 10 minutes after the mixing of the second reagent with the first reagent-A (ΔA9 min and ΔA10 min) is shown in Table 1.” for “sample.”
In other words, it can be understood that the quantitative reaction of hydrogen peroxide was completed in 10 minutes after the mixing of the second reagent with the first reagent-A. Accordingly, ΔA10 min in each Comparative Example or the present invention was defined as ΔA when 100% of the quantitative reaction of hydrogen peroxide progressed under each condition (ΔA100%).

Row | Compound | ΔA9 min
19 | Chrome Yellow | 0.272
20 | O=C([O-])c1cc(N=Nc2cccc([N+](=O)[O-])c2)ccc1O.[Na+] [Alizarin Yellow GG] | 0.170
21 | Oc1ccc(N=Nc2ccccc2)cc1 [4-(Phenylazo)phenol, 4-(phenylazo)phenol] | 0.122
22 | COc1cc(N=Nc2cccc(S(=O)(=O)[O-])c2)ccc1NC(=O)Nc1ccc(N=Nc2ccc(O)c(C(=O)[O-])c2)cc1.[Na+].[Na+] [Direct Yellow 44] | 0.228
23 | O=C([O-])C1=NN(c2ccc(S(=O)(=O)[O-])cc2)C(=O)C1N=Nc1ccc(S(=O)(=O)[O-])cc1.[Na+].[Na+].[Na+] (stereo not drawn) [Tartrazine, reference compound] | 0.344
24 | O=C(O)c1cc2ccccc2c(N=Nc2c(O)cc(S(=O)(=O)O)c3ccccc23)c1O [2-hydroxy-1-(2-hydroxy-4-sulfo-1-naphthylazo)-3-naphthoic acid] | 0.084

same assay, conditions: ΔA of A694/751, 10 minutes after mixing second reagent with first reagent-A (defined as ΔA100%); 0.067 U/ml peroxidase; 0.48% (w/v) compound in second reagent; 0.00012% (w/v) hydrogen peroxide; DA-67; pH 6.5; 37° C.

Row | Compound | ΔA10 min
25 | Chrome Yellow | 0.272
26 | O=C([O-])c1cc(N=Nc2cccc([N+](=O)[O-])c2)ccc1O.[Na+] [Alizarin Yellow GG] | 0.170
27 | Oc1ccc(N=Nc2ccccc2)cc1 [4-(Phenylazo)phenol, 4-(phenylazo)phenol] | 0.122
28 | COc1cc(N=Nc2cccc(S(=O)(=O)[O-])c2)ccc1NC(=O)Nc1ccc(N=Nc2ccc(O)c(C(=O)[O-])c2)cc1.[Na+].[Na+] [Direct Yellow 44] | 0.228
29 | O=C([O-])C1=NN(c2ccc(S(=O)(=O)[O-])cc2)C(=O)C1N=Nc1ccc(S(=O)(=O)[O-])cc1.[Na+].[Na+].[Na+] (stereo not drawn) [Tartrazine, reference compound] | 0.344
30 | O=C(O)c1cc2ccccc2c(N=Nc2c(O)cc(S(=O)(=O)O)c3ccccc23)c1O [2-hydroxy-1-(2-hydroxy-4-sulfo-1-naphthylazo)-3-naphthoic acid] | 0.085
